# Experiments:
# common ragweed = assay: Test F preemergence test; format: in vivo, Ambrosia elation; conditions: scale 0 to 100
# Procedure, shortened: (§1)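 Preemergence application to planted seeds, or postemergence to sugarcane plants; compound in non-phytotoxic solvent mix plus surfactant. Greenhouse, 14-21 days. Visual rating vs. controls.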
# Italian ryegrass = assay: Test F preemergence test; format: in vivo, Lolium multiflorum; conditions: scale 0 to 100
# Procedure, shortened: as §1
# Surinam grass = assay: Test F preemergence test; format: in vivo, Brachiaria decumbens; conditions: scale 0 to 100
# Procedure, shortened: as §1
# Russian thistle = assay: Test C pre-/postemergence test; format: in vivo, Salsola kali; conditions: for Plant response rating, Russian Thistle: 31 g ai/ha, scale 0 to 100 (0 no effect, 100 complete control)
# Procedure, shortened: (§2)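 Compounds in a non-phytotoxic solvent with surfactant applied preemergence to seeded pots and, at the same time, postemergence to plants 2–18 cm tall (1- to 4-leaf stage). Paddy tests: pots flooded to 3 cm, compound applied into the water, depth held throughout.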
# field bindweed = assay: Test F preemergence test; format: in vivo, Convolvulus arvensis; conditions: scale 0 to 100
# Procedure, shortened: as §1
# goosegrass = assay: Test F preemergence test; format: in vivo, Eleusine indica; conditions: scale 0 to 100
# Procedure, shortened: as §1
# southern sandbur = assay: Test F preemergence test; format: in vivo, Cenchrus echinatus; conditions: scale 0 to 100
# Procedure, shortened: as §1
# crabgrass = assay: Test A pre-/postemergence greenhouse test; format: in vivo, Digitaria sanguinalis; conditions: for Crabgrass, Large plant response rating: 0 to 100 scale; for Plant response rating, Crabgrass, Large: 0 to 100 scale where 0 is no effect and 100 is complete control
# Procedure, shortened: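 Untreated controls served as the reference for visual injury ratings taken about ten days after spraying. The non-phytotoxic solvent/surfactant formulation was applied preemergence to seeded loam and sand and postemergence to plants two to ten cm high.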
# catchweed bedstraw = assay: Test C pre-/postemergence test; format: in vivo, Galium aparine; conditions: for Plant response rating, Galium: 31 g ai/ha, scale 0 to 100 (0 no effect, 100 complete control)
# Procedure, shortened: as §2
# downy brome = assay: Test C pre-/postemergence test; format: in vivo, Bromus tectorum
# Procedure, shortened: as §2
# large crabgrass = assay: Test F preemergence test; format: in vivo, Digitaria sanguinalis; conditions: scale 0 to 100
# Procedure, shortened: as §1
# itchgrass = assay: Test F preemergence test; format: in vivo, Rottboellia cochinchinensis; conditions: scale 0 to 100
# Procedure, shortened: as §1
# johnsongrass = assay: Test F preemergence test; format: in vivo, Sorghum halepense; conditions: scale 0 to 100
# Procedure, shortened: as §1
# green foxtail = assay: Test F preemergence test; format: in vivo, Setaria viridis; conditions: scale 0 to 100
# Procedure, shortened: as §1
# [1] = 62 g ai/ha, Preemergence, scale 0 to 100
# [2] = Postemergence, 500 g ai/ha, 0 is no effect, 100 is complete control
# [3] = Preemergence, 125 g ai/ha, 0 no effect, 100 complete control
# [4] = Preemergence, 31 g ai/ha, scale 0 to 100 (0 no effect, 100 complete control)
# [5] = 125 g ai/ha, preemergence, scale 0 (no effect) to 100 (complete control)
# [6] = preemergence, 250 g ai/ha, scale 0 (no effect) to 100 (complete control)
smiles,measurement,setting,value
Cc1cc[n+]([O-])c([S+]([O-])Cc2c(C(F)(F)F)nn(C)c2Cl)c1 (racemic) [Compound 20],"Plant response rating, Ragweed","common ragweed; 8 g ai/ha, preemergence",0
same,Ragweed plant response rating,"common ragweed; 62 g ai/ha, Preemergence",25
same,"Plant response rating, Ragweed","common ragweed; Preemergence, 16 g ai/ha",0
same,"Plant response rating, Ragweed","common ragweed; Preemergence, 31 g ai/ha",0
same,"Plant response rating, Ryegrass, Italian","Italian ryegrass; 8 g ai/ha, preemergence",0
same,"Ryegrass, Italian plant response rating","Italian ryegrass; 62 g ai/ha, Preemergence",65
same,"Plant response rating, Ryegrass, Italian","Italian ryegrass; Preemergence, 16 g ai/ha",10
same,"Plant response rating, Ryegrass, Italian","Italian ryegrass; Preemergence, 31 g ai/ha",35
same,"Plant response rating, Surinam Grass","Surinam grass; 8 g ai/ha, preemergence",0
same,"Plant response rating, Surinam Grass","Surinam grass; 16 g ai/ha, preemergence",0
same,Surinam Grass plant response rating,"Surinam grass; 62 g ai/ha, Preemergence",65
same,"Plant response rating, Surinam Grass","Surinam grass; Preemergence, 31 g ai/ha",60
same,Russian Thistle plant response rating,Russian thistle; [1],100
same,"Plant response rating, Russian Thistle",Russian thistle; Preemergence,100
same,"Plant response rating, Field Bindweed","field bindweed; 8 g ai/ha, preemergence",0
same,Field Bindweed plant response rating,"field bindweed; 62 g ai/ha, Preemergence",15
same,"Plant response rating, Field Bindweed","field bindweed; Preemergence, 16 g ai/ha",0
same,"Plant response rating, Field Bindweed","field bindweed; Preemergence, 31 g ai/ha",0
same,"Plant response rating, Goosegrass","goosegrass; 8 g ai/ha, preemergence",0
same,Goosegrass plant response rating,"goosegrass; 62 g ai/ha, Preemergence",75
same,"Plant response rating, Goosegrass","goosegrass; Preemergence, 16 g ai/ha",15
same,"Plant response rating, Goosegrass","goosegrass; Preemergence, 31 g ai/ha",60
same,"Plant response rating, Sandbur","southern sandbur; 8 g ai/ha, preemergence",0
same,"Plant response rating, Sandbur","southern sandbur; 16 g ai/ha, preemergence",0
same,Sandbur plant response rating,"southern sandbur; 62 g ai/ha, Preemergence",75
same,"Plant response rating, Sandbur","southern sandbur; Preemergence, 31 g ai/ha",60
same,"Crabgrass, Large plant response rating","crabgrass; Postemergence, 125 g ai/ha, 0 is no effect, 100 is complete control",40
same,"Crabgrass, Large plant response rating",crabgrass; [2],80
same,"Crabgrass, Large plant response rating",crabgrass; [3],80
same,"Plant response rating, Crabgrass, Large","crabgrass; Preemergence, 500 g ai/ha",100
same,Galium plant response rating,catchweed bedstraw; [1],85
same,"Plant response rating, Galium",catchweed bedstraw; Preemergence,80
same,"Plant response rating (0 to 100), Galium","catchweed bedstraw; Preemergence, 250 g ai/ha",100
same,"Bromegrass, Downy plant response rating",downy brome; [1],0
same,"Plant response rating, Bromegrass, Downy",downy brome; [4],0
same,"Plant response rating (0 to 100), Bromegrass, Downy","downy brome; Preemergence, 250 g ai/ha",70
same,"Bromegrass, Downy plant response rating","downy brome; preemergence, 125 g ai/ha, scale 0 (no effect) to 100 (complete control)",70
same,"Plant response rating, Crabgrass, Large","large crabgrass; 8 g ai/ha, preemergence",0
same,"Crabgrass, Large plant response rating","large crabgrass; 62 g ai/ha, Preemergence",80
same,"Plant response rating, Crabgrass, Large","large crabgrass; Preemergence, 16 g ai/ha",10
same,"Plant response rating, Crabgrass, Large","large crabgrass; Preemergence, 31 g ai/ha",70
same,"Plant response rating, Itchgrass","itchgrass; 8 g ai/ha, preemergence",0
same,Itchgrass plant response rating,"itchgrass; 62 g ai/ha, Preemergence",70
same,"Plant response rating, Itchgrass","itchgrass; Preemergence, 16 g ai/ha",0
same,"Plant response rating, Itchgrass","itchgrass; Preemergence, 31 g ai/ha",15
same,"Plant response rating, Johnsongrass","johnsongrass; 8 g ai/ha, preemergence",0
same,Johnsongrass plant response rating,"johnsongrass; 62 g ai/ha, Preemergence",90
same,"Plant response rating, Johnsongrass","johnsongrass; Preemergence, 16 g ai/ha",50
same,"Plant response rating, Johnsongrass","johnsongrass; Preemergence, 31 g ai/ha",60
same,"Plant response rating, Foxtail, Green","green foxtail; 8 g ai/ha, preemergence",0
same,"Foxtail, Green plant response rating","green foxtail; 62 g ai/ha, Preemergence",75
same,"Plant response rating, Foxtail, Green","green foxtail; Preemergence, 16 g ai/ha",10
same,"Plant response rating, Foxtail, Green","green foxtail; Preemergence, 31 g ai/ha",40
Cn1nc(C(F)(F)F)c(C[S+]([O-])c2ccc(Cl)c[n+]2[O-])c1OCC(F)(F)F (racemic) [Compound 62],"Plant response rating, Ragweed","common ragweed; 16 g ai/ha, preemergence",60
same,Ragweed plant response rating,"common ragweed; 125 g ai/ha, preemergence",80
same,"Plant response rating, Ragweed","common ragweed; Preemergence, 62 g ai/ha",70
same,"Plant response rating, Ragweed","common ragweed; Preemergence, 31 g ai/ha",60
same,"Plant response rating, Ryegrass, Italian","Italian ryegrass; 16 g ai/ha, preemergence",50
same,"Ryegrass, Italian plant response rating","Italian ryegrass; 125 g ai/ha, preemergence",100
same,"Plant response rating, Ryegrass, Italian","Italian ryegrass; Preemergence, 62 g ai/ha",100
same,"Plant response rating, Ryegrass, Italian","Italian ryegrass; Preemergence, 31 g ai/ha",98
same,"Plant response rating, Surinam Grass","Surinam grass; 16 g ai/ha, preemergence",60
same,Surinam Grass plant response rating,"Surinam grass; 125 g ai/ha, preemergence",100
same,"Plant response rating, Surinam Grass","Surinam grass; Preemergence, 62 g ai/ha",100
same,"Plant response rating, Surinam Grass","Surinam grass; Preemergence, 31 g ai/ha",95
same,Russian Thistle plant response rating,Russian thistle; [1],100
same,Russian Thistle plant response rating,Russian thistle; [5],100
same,"Plant response rating, Russian Thistle",Russian thistle; Preemergence,100
same,Russian Thistle plant response rating,Russian thistle; [6],100
same,"Plant response rating, Field Bindweed","field bindweed; 16 g ai/ha, preemergence",0
same,Field Bindweed plant response rating,"field bindweed; 62 g ai/ha, Preemergence",75
same,Field Bindweed plant response rating,"field bindweed; 125 g ai/ha, preemergence",75
same,"Plant response rating, Field Bindweed","field bindweed; Preemergence, 31 g ai/ha",75
same,"Plant response rating, Goosegrass","goosegrass; 16 g ai/ha, preemergence",50
same,Goosegrass plant response rating,"goosegrass; 62 g ai/ha, Preemergence",98
same,Goosegrass plant response rating,"goosegrass; 125 g ai/ha, preemergence",100
same,"Plant response rating, Goosegrass","goosegrass; Preemergence, 31 g ai/ha",65
same,"Plant response rating, Sandbur","southern sandbur; 16 g ai/ha, preemergence",25
same,Sandbur plant response rating,"southern sandbur; 125 g ai/ha, preemergence",98
same,"Plant response rating, Sandbur","southern sandbur; Preemergence, 62 g ai/ha",98
same,"Plant response rating, Sandbur","southern sandbur; Preemergence, 31 g ai/ha",75
same,"Plant response rating, Crabgrass, Large","crabgrass; Postemergence, 125 g ai/ha",80
same,"Crabgrass, Large plant response rating",crabgrass; [2],90
same,"Crabgrass, Large plant response rating",crabgrass; [3],100
same,"Plant response rating, Crabgrass, Large","crabgrass; Preemergence, 500 g ai/ha",100
same,Galium plant response rating,catchweed bedstraw; [1],100
same,Galium plant response rating,catchweed bedstraw; [5],100
same,"Plant response rating, Galium",catchweed bedstraw; Preemergence,100
same,Galium plant response rating,catchweed bedstraw; [6],100
same,"Bromegrass, Downy plant response rating",downy brome; [1],50
same,"Bromegrass, Downy plant response rating",downy brome; [5],70
same,"Plant response rating (0 to 100), Bromegrass, Downy","downy brome; Postemergence, 31 g ai/ha",0
same,"Plant response rating, Bromegrass, Downy","downy brome; Postemergence, 62 g ai/ha, scale 0 to 100, 0 no effect, 100 complete control",0
same,"Plant response rating, Bromegrass, Downy","downy brome; Postemergence, 125 g ai/ha, scale 0 to 100, 0 no effect, 100 complete control",45
same,"Plant response rating, Bromegrass, Downy","downy brome; Postemergence, 250 g ai/ha, scale 0 to 100, 0 no effect, 100 complete control",60
same,"Plant response rating, Bromegrass, Downy",downy brome; [4],50
same,"Bromegrass, Downy plant response rating",downy brome; [6],85
same,"Plant response rating, Crabgrass, Large","large crabgrass; 16 g ai/ha, preemergence",15
same,"Crabgrass, Large plant response rating","large crabgrass; 62 g ai/ha, Preemergence",90
same,"Crabgrass, Large plant response rating","large crabgrass; 125 g ai/ha, preemergence",98
same,"Plant response rating, Crabgrass, Large","large crabgrass; Preemergence, 31 g ai/ha",60
same,"Plant response rating, Itchgrass","itchgrass; 16 g ai/ha, preemergence",50
same,Itchgrass plant response rating,"itchgrass; 62 g ai/ha, Preemergence",90
same,Itchgrass plant response rating,"itchgrass; 125 g ai/ha, preemergence",98
same,"Plant response rating, Itchgrass","itchgrass; Preemergence, 31 g ai/ha",75
same,"Plant response rating, Johnsongrass","johnsongrass; 16 g ai/ha, preemergence",20
same,Johnsongrass plant response rating,"johnsongrass; 62 g ai/ha, Preemergence",100
same,Johnsongrass plant response rating,"johnsongrass; 125 g ai/ha, preemergence",100
same,"Plant response rating, Johnsongrass","johnsongrass; Preemergence, 31 g ai/ha",80
same,"Plant response rating, Foxtail, Green","green foxtail; 16 g ai/ha, preemergence",20
same,"Foxtail, Green plant response rating","green foxtail; 62 g ai/ha, Preemergence",80
same,"Foxtail, Green plant response rating","green foxtail; 125 g ai/ha, preemergence",100
same,"Plant response rating, Foxtail, Green","green foxtail; Preemergence, 31 g ai/ha",65

# Reference: patent US20100298141A1, “SUBSTITUTED PYRIDINE N-OXIDE HERBICIDES” (E. I. DU PONT DE NEMOURS AND COMPANY, priority 2007, published 2010)
